Reference: patent US9877961B2, “Anticoagulant reversal agents” (PEROSPHERE INC., priority 2011, dated 2018)

Legend:
[1] = tested on: argatroban anticoagulation; assay: Argatroban dosed rats given IV DAP; type: in vivo, rat; settings: 200× IV dose of DAP
[2] = tested on: dabigatran (PRADAXA®) anticoagulation; assay: DAP reversal of dabigatran (PRADAXA®) anticoagulation in vivo, aPTT; design: species or system rat
Description: The activated partial thromboplastin time (aPTT) assay is an assay that measures how long it takes for the blood to clot. Blood samples are collected for direct measurement or in tubes with oxalate and citrate to arrest coagulation by calcium until the assay can be performed. In the assay, a phospholipid, an activator (silica, celite, kaolin, ellagic acid, etc.), and calcium are mixed into the plasma to induce coagulation. The assay measures the time until a thrombus (clot) forms.
A male albino rat, weighing 430 g, was administered 40 mg/kg of PRADAXA® (20 mg PRADAXA®; overdose of PRADAXA®) by oral gavage.
Approximately 2 hours into PRADAXA® treatment, 200 mg/kg DAP (100 mg DAP) was administered as an intravenous bolus injection. Approximately 2 hours later, the rat was administered a dose of 100 mg/kg of DAP (50 mg DAP). In another hour, the rat was administered another dose of 100 mg/kg of DAP (50 mg DAP). aPTT was measured throughout the course of the entire treatment.

[3] = DLS association of DAP with rivaroxaban; type: binding
Procedure: (§1) Rivaroxaban (XARELTO®) alone, DAP alone, and DAP:rivaroxaban combinations at mass ratios of 1:1 and 10:1 were added into an aqueous solution and analyzed by dynamic light scattering (DLS) to assess association of the DAP and rivaroxaban. A similar experiment was conducted on apixaban (ELIQUIS®) alone, DAP alone, and DAP:apixaban combinations at mass ratios of 1:1, 10:1 and 100:1. Fondaparinux (ARIXTRA®) alone, DAP alone, and fondaparinux:DAP combinations at mass ratios of 1:1, 10:1 and 100:1 were similarly tested. LMWH (bemiparin; HIBOR®), alone, DAP alone, and LMWH:DAP combinations at mass ratios of 1:1, 10:1, and 100:1 were also tested. The concentration of LMWH tested was 0.1 mg/ml. Therefore, at 1:1, 0.1 mg/ml DAP was tested, at 10:1, 1 mg/ml was tested, and at 100:1, 10 mg/ml DAP was tested.

[4] = DLS association of DAP with apixaban; type: binding
Procedure: as §1

CYP enzymes = assay: CYP enzyme inhibition / substrate; type: in vitro ADME; settings: data not shown
Water solubility of DAP = type: physicochemical
Procedure: In one embodiment, wherein the pharmaceutical composition comprises the DAP compound of formula V (or its stereoisomer of formula VII) and the composition is adapted for parenteral administration in an injection, the compound is dissolved in water with appropriate tonicity and molality modifiers (such as phosphate buffered saline). DAP is water-soluble at greater than 100 mg/ml. In the one embodiment, DAP is adapted as a sterile solution for IV administration. In one aspect, the molality of the pharmaceutical composition in which DAP is adapted for IV administration is adjusted to 290 mOsm/L with sodium chloride, and the pH is adjusted to 7.4 with sodium hydroxide. Preferably the pharmaceutical composition is administered as an intravenous bolus by slow push.

[5] = tested on: rivaroxaban-induced anticoagulation; assay: DAP reversal of rivaroxaban in freshly drawn human blood ex vivo, aPTT; type: biochemical; settings: 0.25 μg/ml rivaroxaban, 50 μg/ml DAP
Procedure: Human blood was drawn from a volunteer. Rivaroxaban at 0.25 μg/ml was added alone or in combination with 50 μg/ml DAP. Controls contained 50 μg/ml DAP or saline. aPTT was measured within 2 minutes of blood collection.

human ERG = human ERG (Homo sapiens, UniProt Q12809); assay: Human ERG binding; settings: data not shown
Chain of human ERG (Q12809 whole entry): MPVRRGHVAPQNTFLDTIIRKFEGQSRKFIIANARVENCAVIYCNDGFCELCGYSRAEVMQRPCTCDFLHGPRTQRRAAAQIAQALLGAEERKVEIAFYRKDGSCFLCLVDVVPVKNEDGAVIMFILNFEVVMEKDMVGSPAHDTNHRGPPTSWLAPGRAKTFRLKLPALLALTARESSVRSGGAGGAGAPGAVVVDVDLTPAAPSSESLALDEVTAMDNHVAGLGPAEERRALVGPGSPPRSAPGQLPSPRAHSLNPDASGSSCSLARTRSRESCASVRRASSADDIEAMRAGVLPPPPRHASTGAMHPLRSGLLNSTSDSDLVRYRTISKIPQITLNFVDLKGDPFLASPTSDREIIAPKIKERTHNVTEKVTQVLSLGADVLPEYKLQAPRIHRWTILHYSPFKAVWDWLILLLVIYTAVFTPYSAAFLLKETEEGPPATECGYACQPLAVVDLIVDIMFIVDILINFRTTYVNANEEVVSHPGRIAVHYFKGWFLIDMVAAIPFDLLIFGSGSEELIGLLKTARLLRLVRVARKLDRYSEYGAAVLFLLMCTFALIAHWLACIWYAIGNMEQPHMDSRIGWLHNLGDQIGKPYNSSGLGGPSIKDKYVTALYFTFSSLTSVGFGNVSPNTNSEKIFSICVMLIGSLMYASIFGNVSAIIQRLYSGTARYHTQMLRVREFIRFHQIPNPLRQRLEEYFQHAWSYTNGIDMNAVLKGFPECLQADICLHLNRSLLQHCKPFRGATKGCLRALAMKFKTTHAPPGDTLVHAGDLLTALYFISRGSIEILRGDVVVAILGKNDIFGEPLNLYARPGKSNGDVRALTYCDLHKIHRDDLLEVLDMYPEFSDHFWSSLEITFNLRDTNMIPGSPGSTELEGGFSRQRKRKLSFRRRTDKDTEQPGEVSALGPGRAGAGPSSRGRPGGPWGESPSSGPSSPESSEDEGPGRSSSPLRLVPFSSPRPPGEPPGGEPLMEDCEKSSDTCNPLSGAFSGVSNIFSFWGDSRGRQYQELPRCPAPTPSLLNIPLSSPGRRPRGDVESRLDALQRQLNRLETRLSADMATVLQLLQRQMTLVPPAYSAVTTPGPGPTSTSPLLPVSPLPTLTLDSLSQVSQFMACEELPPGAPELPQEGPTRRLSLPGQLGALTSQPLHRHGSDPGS

elimination half-life ([2]; inferred from return of anti-coagulation in rats): short elimination half-life
binding by DLS [3]: directly bound
binding by DLS [4]: directly bound
inhibition / substrate of CYP enzymes (CYP enzymes): did not inhibit or serve as a substrate
solubility (Water solubility of DAP): > 100 mg/mL
human ERG binding (human ERG): no human ERG binding
SMILES: N=C(N)NCCC[C@H](N)C(=O)NCCCN1CCN(CCCNC(=O)[C@@H](N)CCCNC(=N)N)CC1 (stereo in doubt) [DAP, 2-Amino-5-guanidino-pentanoic acid (3-{4-[3-(2-amino-5-guanidino-pentanoylamino)-propyl]-piperazin-1-yl}-propyl)-amide]
anticoagulation of argatroban dosed rats after DAP [1]: remained anticoagulated
aPTT risen back after first DAP dose ([2]; 2 hours after 100 mg DAP): 79 s
aPTT risen after second DAP dose ([2]; after 50 mg DAP): 53 s
time until aPTT returned above baseline following DAP administration ([2]; both times (first and second DAP dose)): ≤ 60 min
time until aPTT below baseline after DAP ([2]; first dose, 100 mg DAP (200 mg/kg) i.v. bolus): ≤ 25 min
time until PRADAXA®-induced anti-coagulation returned after DAP ([2]; intravenous bolus dose of DAP in rats): 20 to 30 min
reversal of oral dabigatran anticoagulation in vivo ([2]; rats, aPTT): reversed
time until aPTT below baseline after DAP ([2]; second dose, 50 mg DAP (100 mg/kg)): ≤ 30 min
time until aPTT dropped to baseline after DAP ([2]; third dose, 100 mg/kg (50 mg) DAP i.v.): ≤ 20 min
effect on rivaroxaban-induced anticoagulation, aPTT [5]: reversal of rivaroxaban-induced anticoagulation
